Assay results from the NIST ThermoML archive (doi:10.1016/j.fluid.2005.05.029).

Test: excess molar enthalpy (molar enthalpy of mixing); xn = mol fraction of the nth substance listed
Details: Liquid, Flow calorimetry

CCOC(=O)OCC [diethyl carbonate] + O=C=O
excess molar enthalpy [kcal/mol]
Details | 298.15 K | 303.15 K | 308.15 K
5000 kPa, x2 = 0.1103 | – | -0.299 | -0.335
5000 kPa, x2 = 0.2074 | -0.57 | -0.577 | -0.627
5000 kPa, x2 = 0.2936 | -0.816 | -0.815 | -0.833
5000 kPa, x2 = 0.3706 | -1.03 | -1.06 | -1.06
5000 kPa, x2 = 0.4398 | -1.22 | -1.24 | -1.24
5000 kPa, x2 = 0.5023 | -1.4 | -1.4 | -1.41
5000 kPa, x2 = 0.5591 | -1.53 | -1.55 | –
5000 kPa, x2 = 0.6109 | -1.65 | -1.67 | -1.68
5000 kPa, x2 = 0.6583 | -1.78 | -1.79 | -1.8
5000 kPa, x2 = 0.7019 | -1.89 | -1.89 | -1.9
5000 kPa, x2 = 0.7184 | – | – | -1.94
5000 kPa, x2 = 0.7264 | – | – | -1.95
5000 kPa, x2 = 0.7343 | – | – | -1.85
5000 kPa, x2 = 0.7421 | -1.97 | -1.98 | -1.81
5000 kPa, x2 = 0.7794 | -2.04 | -2.03 | -1.54
5000 kPa, x2 = 0.7935 | – | -2.05 | –
5000 kPa, x2 = 0.8004 | – | -1.98 | –
5000 kPa, x2 = 0.8139 | -2.1 | -1.86 | –
5000 kPa, x2 = 0.846 | -2.14 | -1.51 | -1.07
5000 kPa, x2 = 0.8522 | -2.07 | – | –
5000 kPa, x2 = 0.876 | -1.76 | -1.21 | –
5000 kPa, x2 = 0.904 | -1.36 | -0.922 | -0.65
5000 kPa, x2 = 0.9303 | -0.998 | -0.722 | –
5000 kPa, x2 = 0.9549 | -0.638 | -0.439 | -0.297
5000 kPa, x2 = 0.9781 | -0.308 | -0.208 | –
5000 kPa, x2 = 0.9957 | – | – | -0.00454
5500 kPa, x2 = 0.111 | -0.3 | -0.304 | -0.305
5500 kPa, x2 = 0.2086 | -0.571 | -0.574 | -0.579
5500 kPa, x2 = 0.2951 | -0.804 | -0.802 | –
5500 kPa, x2 = 0.3723 | -0.995 | -1 | -1.02
5500 kPa, x2 = 0.4416 | -1.16 | -1.17 | –
5500 kPa, x2 = 0.5041 | -1.32 | -1.32 | -1.37
5500 kPa, x2 = 0.5609 | -1.44 | -1.46 | –
5500 kPa, x2 = 0.6126 | – | -1.6 | -1.64
5500 kPa, x2 = 0.66 | -1.68 | -1.71 | -1.75
5500 kPa, x2 = 0.7035 | -1.75 | -1.79 | -1.84
5500 kPa, x2 = 0.7199 | – | – | -1.87
5500 kPa, x2 = 0.7436 | -1.84 | -1.86 | -1.92
5500 kPa, x2 = 0.7587 | – | – | -1.95
5500 kPa, x2 = 0.7661 | – | – | -1.95
5500 kPa, x2 = 0.7734 | – | – | -1.97
5500 kPa, x2 = 0.7806 | -1.91 | -1.94 | -1.95
5500 kPa, x2 = 0.7947 | – | – | -1.82
5500 kPa, x2 = 0.815 | -1.96 | -2.01 | -1.64
5500 kPa, x2 = 0.8281 | – | -2.03 | –
5500 kPa, x2 = 0.8345 | – | -2.03 | –
5500 kPa, x2 = 0.8408 | – | -2.03 | –
5500 kPa, x2 = 0.847 | -2.01 | -1.93 | -1.36
5500 kPa, x2 = 0.8768 | -2.04 | -1.52 | –
5500 kPa, x2 = 0.9047 | -2.07 | -1.21 | -0.841
5500 kPa, x2 = 0.91 | -2.07 | – | –
5500 kPa, x2 = 0.9153 | -2.04 | – | –
5500 kPa, x2 = 0.9205 | -1.95 | – | –
5500 kPa, x2 = 0.9308 | -1.69 | -0.875 | –
5500 kPa, x2 = 0.9553 | -1.08 | -0.564 | -0.396
5500 kPa, x2 = 0.9783 | -0.498 | -0.265 | –
6000 kPa, x2 = 0.2097 | – | – | -0.562
6000 kPa, x2 = 0.2965 | – | – | -0.778
6000 kPa, x2 = 0.3739 | – | – | -0.994
6000 kPa, x2 = 0.4433 | – | – | -1.17
6000 kPa, x2 = 0.5058 | – | – | -1.32
6000 kPa, x2 = 0.5626 | – | – | -1.45
6000 kPa, x2 = 0.6142 | – | – | -1.57
6000 kPa, x2 = 0.6615 | – | – | -1.66
6000 kPa, x2 = 0.7049 | – | – | -1.76
6000 kPa, x2 = 0.7448 | – | – | -1.83
6000 kPa, x2 = 0.7818 | – | – | -1.9
6000 kPa, x2 = 0.7958 | – | – | -1.92
6000 kPa, x2 = 0.816 | – | – | -1.94
6000 kPa, x2 = 0.829 | – | – | -1.95
6000 kPa, x2 = 0.8354 | – | – | -1.91
6000 kPa, x2 = 0.8479 | – | – | -1.76
6000 kPa, x2 = 0.9052 | – | – | -1.09
6000 kPa, x2 = 0.9555 | – | – | -0.501
6500 kPa, x2 = 0.1123 | – | – | -0.281
6500 kPa, x2 = 0.2108 | – | – | -0.536
6500 kPa, x2 = 0.2978 | – | – | -0.751
6500 kPa, x2 = 0.3753 | – | – | -0.972
6500 kPa, x2 = 0.4448 | – | – | -1.1
6500 kPa, x2 = 0.5074 | – | – | -1.25
6500 kPa, x2 = 0.5641 | – | – | -1.37
6500 kPa, x2 = 0.6157 | – | – | -1.47
6500 kPa, x2 = 0.6629 | – | – | -1.58
6500 kPa, x2 = 0.7062 | – | – | -1.67
6500 kPa, x2 = 0.746 | – | – | -1.73
6500 kPa, x2 = 0.7828 | – | – | -1.76
6500 kPa, x2 = 0.817 | – | – | -1.8
6500 kPa, x2 = 0.8487 | – | – | -1.83
6500 kPa, x2 = 0.8782 | – | – | -1.82
6500 kPa, x2 = 0.895 | – | – | -1.7
6500 kPa, x2 = 0.9058 | – | – | -1.56
6500 kPa, x2 = 0.9215 | – | – | -1.27
6500 kPa, x2 = 0.9316 | – | – | -1.13
6500 kPa, x2 = 0.9415 | – | – | -0.986
6500 kPa, x2 = 0.9558 | – | – | -0.69
6500 kPa, x2 = 0.9786 | – | – | -0.329
6500 kPa, x2 = 0.9916 | – | – | -0.111
